One assay relates to LOU-NH91. Put plainly: relative viability (nuclei count vs DMSO), 5 days (fraction); higher = more cells survive. The following applies: first compound 0.8 µM. Put shortly:
(§1)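 Each reported value is a median over duplicate plates. It expresses relative viability: treated-well nuclei count divided by vehicle-well nuclei count. Lung cancer cell lines in 1536-well plates were dosed by pin tool a day after seeding, alone with one drug or with a fixed anchor-drug dose plus five library-drug doses (not always all listed) in √10 steps, and nuclei were counted after 5 days.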
The molecule `Oc1nc(-c2ccc(C(F)(F)F)cc2)nc2c1CSCC2` [XAV939] + CC(=O)c1c(C)c2cnc(Nc3ccc(N4CCNCC4)cn3)nc2n(C2CCCC2)c1=O [Palbociclib] (partner 0.5 µM) came in with a relative viability of 0.54.
The same measure, in the same setting: the same measure for `C=C1C(=O)O[C@@H](CCCCCCCC)[C@@H]1C(=O)O` [C-75] + CC(=O)c1c(C)c2cnc(Nc3ccc(N4CCNCC4)cn3)nc2n(C2CCCC2)c1=O [Palbociclib] (partner 0.5 µM): 0.504; for `C=C1C(=O)O[C@@H](CCCCCCCC)[C@@H]1C(=O)O` [C-75] + Nc1ncn([C@H]2C[C@H](O)[C@@H](CO)O2)c(=O)n1 [Decitabine] (partner 2 µM): 0.752.

The assay is the same for the next values; noted with them: first compound 2.53 µM.
Turning to `Oc1nc(-c2ccc(C(F)(F)F)cc2)nc2c1CSCC2` [XAV939] + O=C(CCCCCCC(=O)Nc1ccccc1)NO [Vorinostat] (partner 1 µM), the relative viability worked out at 0.937.
On the same count and under the same terms, to `Oc1nc(-c2ccc(C(F)(F)F)cc2)nc2c1CSCC2` [XAV939] + O=C(c1cc(Cc2n[nH]c(=O)c3ccccc23)ccc1F)N1CCN(C(=O)C2CC2)CC1 [Olaparib] (partner 8 µM) belongs 0.887; to `Oc1nc(-c2ccc(C(F)(F)F)cc2)nc2c1CSCC2` [XAV939] + CC(=O)c1c(C)c2cnc(Nc3ccc(N4CCNCC4)cn3)nc2n(C2CCCC2)c1=O [Palbociclib] (partner 0.5 µM), 0.419.

Still in this assay, the particulars now being: first compound 8 µM.
As to `C=C1C(=O)O[C@@H](CCCCCCCC)[C@@H]1C(=O)O` [C-75] + CC(=O)c1c(C)c2cnc(Nc3ccc(N4CCNCC4)cn3)nc2n(C2CCCC2)c1=O [Palbociclib] (partner 0.5 µM), the relative viability amounted to 0.464.
Same read-out and setting: to `C=C1C(=O)O[C@@H](CCCCCCCC)[C@@H]1C(=O)O` [C-75] + Nc1ncn([C@H]2C[C@H](O)[C@@H](CO)O2)c(=O)n1 [Decitabine] (partner 2 µM) belongs 0.792.

A further assay relates to NCI-H1734. The description is as above. Particulars: first compound 0.08 µM. Put shortly: as §1
Consider `Oc1nc(-c2ccc(C(F)(F)F)cc2)nc2c1CSCC2` [XAV939] + O=C(CCCCCCC(=O)Nc1ccccc1)NO [Vorinostat] (partner 1 µM), for which the relative viability was determined as 0.98.
The same measure, in the same setting: the same measure for `Oc1nc(-c2ccc(C(F)(F)F)cc2)nc2c1CSCC2` [XAV939] + O=C(c1cc(Cc2n[nH]c(=O)c3ccccc23)ccc1F)N1CCN(C(=O)C2CC2)CC1 [Olaparib] (partner 8 µM): 0.655.
On the same count and under the same terms, the same measure for `Oc1nc(-c2ccc(C(F)(F)F)cc2)nc2c1CSCC2` [XAV939] + CC(=O)c1c(C)c2cnc(Nc3ccc(N4CCNCC4)cn3)nc2n(C2CCCC2)c1=O [Palbociclib] (partner 0.5 µM): 0.346.
`C=C1C(=O)O[C@@H](CCCCCCCC)[C@@H]1C(=O)O` [C-75] + CC(=O)c1c(C)c2cnc(Nc3ccc(N4CCNCC4)cn3)nc2n(C2CCCC2)c1=O [Palbociclib] (partner 0.5 µM) gave a relative viability of 0.34.
Same read-out and setting: the same measure for `C=C1C(=O)O[C@@H](CCCCCCCC)[C@@H]1C(=O)O` [C-75] + Nc1ncn([C@H]2C[C@H](O)[C@@H](CO)O2)c(=O)n1 [Decitabine] (partner 2 µM): 0.516.

The same assay, now with this note: first compound 0.253 µM.
Take `Oc1nc(-c2ccc(C(F)(F)F)cc2)nc2c1CSCC2` [XAV939] + O=C(CCCCCCC(=O)Nc1ccccc1)NO [Vorinostat] (partner 1 µM): the relative viability came out at 0.835.
Still for that read-out and setting: the same measure for `Oc1nc(-c2ccc(C(F)(F)F)cc2)nc2c1CSCC2` [XAV939] + O=C(c1cc(Cc2n[nH]c(=O)c3ccccc23)ccc1F)N1CCN(C(=O)C2CC2)CC1 [Olaparib] (partner 8 µM): 0.538; for `Oc1nc(-c2ccc(C(F)(F)F)cc2)nc2c1CSCC2` [XAV939] + CC(=O)c1c(C)c2cnc(Nc3ccc(N4CCNCC4)cn3)nc2n(C2CCCC2)c1=O [Palbociclib] (partner 0.5 µM): 0.3.
Take `C=C1C(=O)O[C@@H](CCCCCCCC)[C@@H]1C(=O)O` [C-75] + CC(=O)c1c(C)c2cnc(Nc3ccc(N4CCNCC4)cn3)nc2n(C2CCCC2)c1=O [Palbociclib] (partner 0.5 µM): the relative viability amounted to 0.315.
Still for that read-out and setting: the same measure for `C=C1C(=O)O[C@@H](CCCCCCCC)[C@@H]1C(=O)O` [C-75] + Nc1ncn([C@H]2C[C@H](O)[C@@H](CO)O2)c(=O)n1 [Decitabine] (partner 2 µM): 0.589.

The assay is the same for the next values; noted with them: first compound 0.8 µM.
`Oc1nc(-c2ccc(C(F)(F)F)cc2)nc2c1CSCC2` [XAV939] + O=C(CCCCCCC(=O)Nc1ccccc1)NO [Vorinostat] (partner 1 µM) registered a relative viability of 0.757.
In the case of `Oc1nc(-c2ccc(C(F)(F)F)cc2)nc2c1CSCC2` [XAV939] + O=C(c1cc(Cc2n[nH]c(=O)c3ccccc23)ccc1F)N1CCN(C(=O)C2CC2)CC1 [Olaparib] (partner 8 µM), the relative viability amounted to 0.673.
Molecule `Oc1nc(-c2ccc(C(F)(F)F)cc2)nc2c1CSCC2` [XAV939] + CC(=O)c1c(C)c2cnc(Nc3ccc(N4CCNCC4)cn3)nc2n(C2CCCC2)c1=O [Palbociclib] (partner 0.5 µM) came in with a relative viability of 0.321.
On the same count and under the same terms, the same measure for `C=C1C(=O)O[C@@H](CCCCCCCC)[C@@H]1C(=O)O` [C-75] + CC(=O)c1c(C)c2cnc(Nc3ccc(N4CCNCC4)cn3)nc2n(C2CCCC2)c1=O [Palbociclib] (partner 0.5 µM): 0.36; for `C=C1C(=O)O[C@@H](CCCCCCCC)[C@@H]1C(=O)O` [C-75] + Nc1ncn([C@H]2C[C@H](O)[C@@H](CO)O2)c(=O)n1 [Decitabine] (partner 2 µM): 0.457.

The assay is the same for the next values; noted with them: first compound 2.53 µM.
`Oc1nc(-c2ccc(C(F)(F)F)cc2)nc2c1CSCC2` [XAV939] + O=C(CCCCCCC(=O)Nc1ccccc1)NO [Vorinostat] (partner 1 µM) showed a relative viability of 0.803.
`Oc1nc(-c2ccc(C(F)(F)F)cc2)nc2c1CSCC2` [XAV939] + O=C(c1cc(Cc2n[nH]c(=O)c3ccccc23)ccc1F)N1CCN(C(=O)C2CC2)CC1 [Olaparib] (partner 8 µM) came in with a relative viability of 0.602.
On the same count and under the same terms, the same measure for `Oc1nc(-c2ccc(C(F)(F)F)cc2)nc2c1CSCC2` [XAV939] + CC(=O)c1c(C)c2cnc(Nc3ccc(N4CCNCC4)cn3)nc2n(C2CCCC2)c1=O [Palbociclib] (partner 0.5 µM): 0.357; for `C=C1C(=O)O[C@@H](CCCCCCCC)[C@@H]1C(=O)O` [C-75] + CC(=O)c1c(C)c2cnc(Nc3ccc(N4CCNCC4)cn3)nc2n(C2CCCC2)c1=O [Palbociclib] (partner 0.5 µM): 0.254.
Same read-out and setting: to `C=C1C(=O)O[C@@H](CCCCCCCC)[C@@H]1C(=O)O` [C-75] + Nc1ncn([C@H]2C[C@H](O)[C@@H](CO)O2)c(=O)n1 [Decitabine] (partner 2 µM) belongs 0.264.

The assay is the same for the next values; noted with them: first compound 8 µM.
Take `C=C1C(=O)O[C@@H](CCCCCCCC)[C@@H]1C(=O)O` [C-75] + CC(=O)c1c(C)c2cnc(Nc3ccc(N4CCNCC4)cn3)nc2n(C2CCCC2)c1=O [Palbociclib] (partner 0.5 µM): the relative viability came out at 0.345.
Same read-out and setting: to `C=C1C(=O)O[C@@H](CCCCCCCC)[C@@H]1C(=O)O` [C-75] + Nc1ncn([C@H]2C[C@H](O)[C@@H](CO)O2)c(=O)n1 [Decitabine] (partner 2 µM) belongs 0.448.

These data come from the supplement of paper PMC10307832.
